Laboratory results reported in patent US20110182850A1, “ORGANIC COMPOUNDS AND THEIR USES” (priority 2009, published 2011).

Biological target: T1, HCV NS3-4A serine protease (full-length NS3-4A protein, genotype 1a, strain HCV-1) (Hepatitis C virus genotype 1a, UniProt P26664)
T1 construct: using the full-length NS3-4A protein (genotype 1a, strain HCV-1)
Experiment: HCV NS3-4A protease assay
Type: biochemical
Settings: Protease IC50
Method: The inhibitory activity of certain compounds of Table A against HCV NS3-4A serine protease is determined in a homogenous assay using the full-length NS3-4A protein (genotype 1a, strain HCV-1) and a commercially available internally-quenched fluorogenic peptide substrate as described by Taliani, M., et al. 1996 Anal. Biochem. 240:60-67, which is incorporated by reference in its entirety.

T1 sequence (P26664 1658-1711): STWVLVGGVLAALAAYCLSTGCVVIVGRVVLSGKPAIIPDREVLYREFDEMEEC
T1 sequence (P26664 1027-1657): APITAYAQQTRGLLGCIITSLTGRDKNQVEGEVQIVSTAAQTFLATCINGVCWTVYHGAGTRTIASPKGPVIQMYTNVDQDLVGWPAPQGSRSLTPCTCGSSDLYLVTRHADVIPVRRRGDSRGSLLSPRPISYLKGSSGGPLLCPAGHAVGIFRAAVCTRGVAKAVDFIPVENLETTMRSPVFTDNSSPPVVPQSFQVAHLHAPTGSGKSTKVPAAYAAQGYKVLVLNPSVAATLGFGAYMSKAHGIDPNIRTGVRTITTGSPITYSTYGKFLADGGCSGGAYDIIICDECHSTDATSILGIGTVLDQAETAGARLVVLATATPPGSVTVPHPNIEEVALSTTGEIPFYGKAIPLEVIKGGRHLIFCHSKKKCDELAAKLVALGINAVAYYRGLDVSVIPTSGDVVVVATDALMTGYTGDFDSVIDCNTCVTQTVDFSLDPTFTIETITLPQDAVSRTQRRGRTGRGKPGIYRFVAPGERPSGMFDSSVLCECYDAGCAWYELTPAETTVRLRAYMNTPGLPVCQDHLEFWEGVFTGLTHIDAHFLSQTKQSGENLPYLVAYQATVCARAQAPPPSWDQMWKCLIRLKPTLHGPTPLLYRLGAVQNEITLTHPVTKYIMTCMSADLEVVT

SMILES	IC50 [nM]
C=C[C@@H]1C[C@]1(NC(=O)[C@@H]1C[C@@]2(CN1C(=O)[C@@H](NC(=O)[C@@H](N1CCCC1=O)C(C)(C)C)C(C)(C)C)C(C)(C)C21CCC1)C(=O)NS(=O)(=O)C1CC1 [Compound 35, (5R,8S)-N-{(1R,2S)-1-[(cyclopropylsulfonyl)carba-moyl]-2-vinylcyclopropyl}-7-[(2S)-2-{[(2S)-3,3-dimethyl-2-(2-oxopyrrolidin-1-yl)butanoyl]amino}-3,3-dimethylbutanoyl]-10,10-dimethyl-7-azadispiro[3.0.4.1]decane-8-carboxamide]	9
C=C[C@@H]1C[C@]1(NC(=O)[C@@H]1C[C@@]2(CN1C(=O)[C@@H](NC(=O)[C@@H](NC(=O)[C@@H]1CCCCN1C(C)C)C(C)(C)CC)C(C)(C)C)C(C)(C)C21CCC1)C(=O)NS(=O)(=O)C1CC1 [Compound 36, (5R,8S)-N-{(1R,2S)-1-[(cyclopropylsulfonyl)carba-moyl]-2-vinylcyclopropyl}-7-[(2S)-2-{[(2S)-2-({[(2S)-1-isopropylpiperidin-2-yl]carbonyl}amino)-3,3-dimethylpentanoyl]amino}-3,3-dimethylbutanoyl]-10,10-dimethyl-7-azadispiro[3.0.4.1]decane-8-carboxamide]	1
C=C[C@@H]1C[C@]1(NC(=O)[C@@H]1C[C@@]2(CN1C(=O)[C@@H](NC(=O)[C@@H]1CCCCCCCN3CCCC[C@H]3C(=O)N1)C(C)(C)C)C(C)(C)C21CCC1)C(=O)NS(=O)(=O)C1CC1 [Compound 38, (5R,8S)-N-{(1R,2S)-1-[(cyclopropylsulfonyl)carba-moyl]-2-vinylcyclopropyl}-7-[(2S)-3,3-dimethyl-2-({[(3S,15aS)-1-oxotetradecahydro-2H-pyrido[1,2-a][1,4]diazacyclododecin-3-yl]carbonyl}amino)butanoyl]-10,10-dimethyl-7-azadispiro[3.0.4.1]decane-8-carboxamide]	8
C=C[C@@H]1C[C@]1(NC(=O)[C@@H]1C[C@@]2(CN1C(=O)[C@@H](NC(=O)[C@@H](NC(=O)c1cc(C(C)C)n[nH]1)C(C)(C)C)C(C)(C)C)C(C)(C)C21CCC1)C(=O)NS(=O)(=O)C1CC1 [Compound 39, (5R,8S)-N-{(1R,2S)-1-[(cyclopropylsulfonyl)carba-moyl]-2-vinylcyclopropyl}-7-[(2S)-2-{[(2S)-2-{[(3-isopropyl-1H-pyrazol-5-yl)carbonyl]amino}-3,3-dimethylbutanoyl]amino}-3,3-dimethylbutanoyl]-10,10-dimethyl-7-azadispiro[3.0.4.1]decane-8-carboxamide]	6
C=C[C@@H]1C[C@]1(NC(=O)[C@@H]1C[C@@]2(CN1C(=O)[C@@H](NC(=O)[C@@H](NC(=O)C1CNC(=O)N1)C(C)(C)C)C(C)(C)C)C(C)(C)C21CCC1)C(=O)NS(=O)(=O)C1CC1 (stereo partly drawn) [Compound 40, (5R,8S)-N-{(1R,2S)-1-[(cyclopropylsulfonyl)carba-moyl]-2-vinylcyclopropyl}-7-[(2S)-2-{[(2S)-3,3-dimethyl-2-{[(2-oxoimidazolidin-4-yl)carbonyl]amino}butanoyl]amino}-3,3-dimethylbutanoyl]-10,10-dimethyl-7-azadispiro[3.0.4.1]decane-8-carboxamide]	10
C=C[C@@H]1C[C@]1(NC(=O)[C@@H]1C[C@@]2(CN1C(=O)[C@@H](NC(=O)[C@@H](NC(=O)c1ncn[nH]1)C(C)(C)C)C(C)(C)C)C(C)(C)C21CCC1)C(=O)NS(=O)(=O)C1CC1 [Compound 41, (5R,8S)-N-{(1R,2S)-1-[(cyclopropylsulfonyl)carba-moyl]-2-vinylcyclopropyl}-7-[(2S)-2-({(2S)-3,3-dimethyl-2-[(1H-1,2,4-triazol-5-ylcarbonyl)amino]butanoyl}amino)-3,3-dimethylbutanoyl]-10,10-dimethyl-7-azadispiro[3.0.4.1]decane-8-carboxamide]	25
C=C[C@@H]1C[C@]1(NC(=O)[C@@H]1C[C@@]2(CN1C(=O)[C@@H](NC(=O)[C@@H](NC(=O)c1c[nH]c(=O)[nH]1)C(C)(C)C)C(C)(C)C)C(C)(C)C21CCC1)C(=O)NS(=O)(=O)C1CC1 [Compound 44, (5R,8S)-N-{(1R,2S)-1-[(cyclopropylsulfonyl)carba-moyl]-2-vinylcyclopropyl}-7-[(2S)-2-{[(2S)-3,3-dimethyl-2-{[(2-oxo-2,3-dihydro-1H-imidazol-4-yl)carbonyl]amino}butanoyl]amino}-3,3-dimethylbutanoyl]-10,10-dimethyl-7-azadispiro[3.0.4.1]decane-8-carboxamide]	2

Same assay, conditions: read-out: Protease IC50

IC50 [nM]	SMILES
8	C=C[C@@H]1C[C@]1(NC(=O)[C@@H]1C[C@@]2(CN1C(=O)[C@@H](NC(=O)N[C@H](C(=O)N(C)C)C(C)(C)C)C(C)(C)C)C(C)(C)C21CCC1)C(=O)NS(=O)(=O)C1CC1 [Compound 30, (5R,8S)-N-{(1R,2S)-1-[(cyclopropylsulfonyl)carba-moyl]-2-vinylcyclopropyl}-7-[(2S)-2-({[(1S)-1-(dimethylcarbamoyl)-2,2-dimethylpropyl]carbamoyl}amino)-3,3-dimethylbutanoyl]-10,10-dimethyl-7-azadispiro[3.0.4.1]decane-8-carboxamide]
15	C=C[C@@H]1C[C@]1(NC(=O)[C@@H]1C[C@@]2(CN1C(=O)[C@@H](NC(=O)N[C@H](C(=O)N1CCOCC1)C(C)(C)C)C(C)(C)C)C(C)(C)C21CCC1)C(=O)NS(=O)(=O)C1CC1 [Compound 31, (5R,8S)-N-{(1R,2S)-1-[(cyclopropylsulfonyl)carba-moyl]-2-vinylcyclopropyl}-7-[(2S)-2-({[(1S)-2,2-dimethyl-1-(morpholin-4-ylcarbonyl)propyl]carbamoyl}amino)-3,3-dimethylbutanoyl]-10,10-dimethyl-7-azadispiro[3.0.4.1]decane-8-carboxamide]
30	C=C[C@@H]1C[C@]1(NC(=O)[C@@H]1C[C@@]2(CN1C(=O)[C@@H](NC(=O)N[C@H](C(=O)NC)C(C)(C)C)C(C)(C)C)C(C)(C)C21CCC1)C(=O)NS(=O)(=O)C1CC1 [Compound 32, (5R,8S)-N-{(1R,2S)-1-[(cyclopropylsulfonyl)carba-moyl]-2-vinylcyclopropyl}-7-[(2S)-2-({[(1S)-2,2-dimethyl-1-(methylcarbamoyl)propyl]carbamoyl}amino)-3,3-dimethylbutanoyl]-10,10-dimethyl-7-azadispiro[3.0.4.1]decane-8-carboxamide]
1400	C=C[C@@H]1C[C@]1(NC(=O)[C@@H]1C[C@@]2(CN1C(=O)[C@@H](NC(=O)N[C@H](CC(=O)N(C)C)C(C)(C)C)C(C)(C)C)C(C)(C)C21CCC1)C(=O)NS(=O)(=O)C1CC1 [Compound 33, (5R,8S)-N-{(1R,2S)-1-[(cyclopropylsulfonyl)carba-moyl]-2-vinylcyclopropyl}-7-{(2S)-2-[({(1R)-1-[2-(dimethylamino)-2-oxoethyl]-2,2-dimethylpropyl}carbamoyl)amino]-3,3-dimethylbutanoyl}-10,10-dimethyl-7-azadispiro[3.0.4.1]decane-8-carboxamide]
2150	C=C[C@@H]1C[C@]1(NC(=O)[C@@H]1C[C@@]2(CN1C(=O)[C@@H](NC(=O)N[C@H](CC(=O)N1CCOCC1)C(C)(C)C)C(C)(C)C)C(C)(C)C21CCC1)C(=O)NS(=O)(=O)C1CC1 [Compound 34, (5R,8S)-N-{(1R,2S)-1-[(cyclopropylsulfonyl)carba-moyl]-2-vinylcyclopropyl}-7-[(2S)-2-({[(1R)-2,2-dimethyl-1-(2-morpholin-4-yl-2-oxoethyl)propyl]carbamoyl}amino)-3,3-dimethylbutanoyl]-10,10-dimethyl-7-azadispiro[3.0.4.1]decane-8-carboxamide]
45	C=C[C@@H]1C[C@]1(NC(=O)[C@@H]1C[C@@]2(CN1C(=O)[C@@H](NC(=O)NC13CC4CC(CC(C4)C1)C3)C(C)(C)C)C(C)(C)C21CCC1)C(=O)NS(=O)(=O)C1CC1 [Compound 37, (5R,8S)-7-{(2S)-2-[(adamantan-1-ylcarbamoyl)amino]-3,3-dimethylbutanoyl}-N-{(1R,2S)-1-[(cyclopropylsulfonyl)carba-moyl]-2-vinylcyclopropyl}-10,10-dimethyl-7-azadispiro[3.0.4.1]decane-8-carboxamide]
140	C=C[C@@H]1C[C@]1(NC(=O)[C@@H]1C[C@@]2(CN1C(=O)[C@@H](NC(=O)O[C@H](C(=O)N(C)C)C(C)(C)C)C(C)(C)C)C(C)(C)C21CCC1)C(=O)NS(=O)(=O)C1CC1 [Compound 42, (1S)-1-(dimethylcarbamoyl)-2,2-dimethylpropyl [(1S)-1-{[(5R,8S)-8-({(1R,2S)-1-[(cyclopropylsulfonyl)carba-moyl]-2-vinylcyclopropyl}carbamoyl)-10,10-dimethyl-7-azadispiro[3.0.4.1]dec-7-yl]carbonyl}-2,2-dimethylpropyl]carbamate]
450	C=C[C@@H]1C[C@]1(NC(=O)[C@@H]1C[C@@]2(CN1C(=O)[C@@H](CC(=O)OC(C)(C)C)C(C)(C)C)C(C)(C)C21CCC1)C(=O)NS(=O)(=O)C1CC1 [Compound 43, tert-butyl (3S)-3-{[(5R,8S)-8-({(1R,2S)-1-[(cyclopropylsulfonyl)carba-moyl]-2-vinylcyclopropyl}carbamoyl)-10,10-dimethyl-7-azadispiro[3.0.4.1]dec-7-yl]carbonyl}-4,4-dimethylpentanoate]
65	C=C[C@@H]1C[C@]1(NC(=O)[C@@H]1C[C@@]2(CN1C(=O)[C@@H](NC(=O)[C@@H](CC(=O)OC(C)(C)C)C(C)(C)C)C(C)(C)C)C(C)(C)C21CCC1)C(=O)NS(=O)(=O)C1CC1 [Compound 45, tert-butyl (3S)-3-{[(1S)-1-{[(5R,8S)-8-({(1R,2S)-1-[(cyclopropylsulfonyl)carba-moyl]-2-vinylcyclopropyl}carbamoyl)-10,10-dimethyl-7-azadispiro[3.0.4.1]dec-7-yl]carbonyl}-2,2-dimethylpropyl]carbamoyl}-4,4-dimethylpentanoate]
